No end group written: not given here.
test: In vitro peptide solubility assay (qualitative, pellet after centrifugation); assay type: physicochemical; settings: Tris buffer, pH 7.4; read-out: Solubilty
Procedure: Solubility of peptides of the invention was obtained using a qualitative assay where the peptide was dissolved in Tris buffer, pH 7.4 at 1, 5, or 10 mg/ml, vortexed briefly, and then centrifuged at 16,000 g for 30 min.

Substance	solubility [µg/mL]
NFGAILS [SEQ ID NO. 10]	< 200
NFGAPLS [SEQ ID NO. 11]	< 1000
DFGAPL [SEQ ID NO. 2]	> 10000
Ac-DFGAPL-NH2 (N-terminus and C-terminus assumed) [SEQ ID NO. 3]	> 10000
DFGAILD [SEQ ID NO. 12]	≥ 2000
DFGAPLD [SEQ ID NO. 4]	> 10000
